Assay results reported in ChEMBL document CHEMBL1150816, “Bioactive constituents of the roots of Licania intrapetiolaris” (J Nat Prod, 2001).
In brackets after ≈: the same amount, converted by molar mass. Activity calls are given as the source filed them. No cut-off for these calls is given here.

What was measured:
Aspergillus niger = assay: Antifungal activity against Aspergillus niger after 24 hrs; type: functional
KB = assay: Cytotoxicity against human KB cells after 72 hrs by spectrophotometric method; type: functional, cell-based

Structure (SMILES)	inhibition zone (IZ) (Aspergillus niger)	EC50 (KB) [µg/mL]
C=CC(=C)CC[C@]1(C)[C@H](C)C[C@H](O)[C@@]23C(=C[C@@H](OC(=O)c4ccc(O)cc4)C[C@@H]12)[C@@H](OC(C)=O)O[C@H]3OC(C)=O [INTRAPETACIN B]	21 mm	0.8 (≈ 1.44 µM)
C=CC(=C)CC[C@]1(C)[C@H](C)C[C@H](O)[C@@]23C(=C[C@@H](OC(=O)c4ccc(O)cc4)C[C@@H]12)[C@@H](OC)O[C@H]3OC(C)=O [INTRAPETACIN A]	inactive	2 (≈ 3.8 µM)
C[C@@H]1[C@H](O)[C@@H](C)/C=C/C=C/C=C/C=C/C=C/C=C/C=C/[C@H](O[C@@H]2O[C@H](C)[C@@H](O)[C@H](N)[C@@H]2O)C[C@@H]2O[C@](O)(C[C@@H](O)C[C@@H](O)[C@H](O)CC[C@@H](O)C[C@@H](O)CC(=O)O[C@H]1C)C[C@H](O)[C@H]2C(=O)O [AMPHOTERICIN B]	18 mm	
CC(=O)OC(C)(C)/C=C/C(=O)[C@](C)(O)[C@H]1[C@H](O)C[C@@]2(C)[C@@H]3CC=C4[C@H](C[C@H](O)C(=O)C4(C)C)[C@]3(C)C(=O)C[C@]12C [CUCURBITACIN B]		0.008 (≈ 0.0143 µM)
